From PubChem BioAssay (NCI)
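Cultured in 96-well plates, cells were exposed to test compound for 48 hours across five concentrations. Definition used: TGI = concentration required for complete inhibition of growth.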

Assays:
Test in all cases: NCI tumour cell line growth inhibition, 48 h
UACC-62 melanoma = test system: UACC-62 melanoma
EKVX NSCLC = test system: EKVX NSCLC
RPMI-8226 leukemia = test system: RPMI-8226 leukemia
SF-295 CNS = test system: SF-295 CNS
SNB-19 CNS = test system: SNB-19 CNS
TK-10 renal = test system: TK-10 renal
OVCAR-5 ovarian = test system: OVCAR-5 ovarian
A549 NSCLC = test system: A549 NSCLC
IGROV1 ovarian = test system: IGROV1 ovarian
HT29 colon = test system: HT29 colon
OVCAR-3 ovarian = test system: OVCAR-3 ovarian
OVCAR-4 ovarian = test system: OVCAR-4 ovarian
COLO 205 colon = test system: COLO 205 colon
MDA-N = test system: MDA-N
MDA-MB-231 breast = test system: MDA-MB-231 breast
OVCAR-8 ovarian = test system: OVCAR-8 ovarian
NCI/ADR-RES ovarian = test system: NCI/ADR-RES ovarian
UACC-257 melanoma = test system: UACC-257 melanoma
SK-OV-3 ovarian = test system: SK-OV-3 ovarian
SW-620 colon = test system: SW-620 colon
U251 CNS = test system: U251 CNS
SN12C renal = test system: SN12C renal
T-47D breast = test system: T-47D breast
HS 578T breast = test system: HS 578T breast
HCT-116 colon = test system: HCT-116 colon
UO-31 renal = test system: UO-31 renal
RXF 393 renal = test system: RXF 393 renal
M14 melanoma = test system: M14 melanoma
MDA-MB-435 = test system: MDA-MB-435
NCI-H226 lung = test system: NCI-H226 lung
BT-549 breast = test system: BT-549 breast
HCC-2998 colon = test system: HCC-2998 colon
SK-MEL-5 melanoma = test system: SK-MEL-5 melanoma
CAKI-1 renal = test system: CAKI-1 renal
MOLT-4 leukemia = test system: MOLT-4 leukemia
SR leukemia = test system: SR leukemia
786-0 renal = test system: 786-0 renal
NCI-H522 lung = test system: NCI-H522 lung
PC-3 prostate = test system: PC-3 prostate
MCF7 breast = test system: MCF7 breast
HOP-92 NSCLC = test system: HOP-92 NSCLC
HOP-62 NSCLC = test system: HOP-62 NSCLC
HCT-15 colon = test system: HCT-15 colon
SK-MEL-2 melanoma = test system: SK-MEL-2 melanoma
LOX IMVI melanoma = test system: LOX IMVI melanoma
A498 renal = test system: A498 renal
SF-268 CNS = test system: SF-268 CNS
MALME-3M melanoma = test system: MALME-3M melanoma
K-562 leukemia = test system: K-562 leukemia
ACHN renal = test system: ACHN renal
KM12 colon = test system: KM12 colon
NCI-H23 lung = test system: NCI-H23 lung
CCRF-CEM leukemia = test system: CCRF-CEM leukemia
NCI-H460 lung = test system: NCI-H460 lung
SF-539 CNS = test system: SF-539 CNS
SNB-75 CNS = test system: SNB-75 CNS

O=c1c2c(-c3ccccc3)onc2n(-c2ccccc2)c(=O)n1-c1ccccc1
TGI (UACC-62 melanoma): 32 µM | TGI (EKVX NSCLC): 59.5 µM | TGI (RPMI-8226 leukemia): > 100 µM | TGI (SF-295 CNS): > 100 µM | TGI (SNB-19 CNS): > 100 µM | TGI (TK-10 renal): 58.2 µM | TGI (OVCAR-5 ovarian): 44 µM | TGI (A549 NSCLC): > 100 µM | TGI (IGROV1 ovarian): 52.1 µM | TGI (HT29 colon): 45.3 µM | TGI (OVCAR-3 ovarian): 38.6 µM | TGI (OVCAR-4 ovarian): > 100 µM | TGI (COLO 205 colon): > 100 µM | TGI (MDA-N): > 100 µM | TGI (MDA-MB-231 breast): > 100 µM | TGI (OVCAR-8 ovarian): 45.5 µM | TGI (NCI/ADR-RES ovarian): 43.2 µM | TGI (UACC-257 melanoma): 53 µM | TGI (SK-OV-3 ovarian): > 100 µM | TGI (SW-620 colon): > 100 µM | TGI (U251 CNS): > 100 µM | TGI (SN12C renal): > 100 µM | TGI (T-47D breast): > 100 µM | TGI (HS 578T breast): 89.8 µM | TGI (HCT-116 colon): > 100 µM | TGI (UO-31 renal): 30.4 µM | TGI (RXF 393 renal): > 100 µM | TGI (M14 melanoma): 49.7 µM | TGI (MDA-MB-435): > 100 µM | TGI (NCI-H226 lung): 71 µM | TGI (BT-549 breast): 39.5 µM | TGI (HCC-2998 colon): 33.1 µM | TGI (SK-MEL-5 melanoma): > 100 µM | TGI (CAKI-1 renal): > 100 µM | TGI (MOLT-4 leukemia): > 100 µM | TGI (SR leukemia): > 100 µM | TGI (786-0 renal): > 100 µM | TGI (NCI-H522 lung): 33.2 µM | TGI (PC-3 prostate): 82 µM | TGI (MCF7 breast): > 100 µM | TGI (HOP-92 NSCLC): > 100 µM | TGI (HOP-62 NSCLC): 54.9 µM | TGI (HCT-15 colon): 39.1 µM | TGI (SK-MEL-2 melanoma): 25 µM | TGI (LOX IMVI melanoma): > 100 µM | TGI (A498 renal): > 100 µM | TGI (SF-268 CNS): > 100 µM | TGI (MALME-3M melanoma): 34.5 µM | TGI (K-562 leukemia): > 100 µM | TGI (ACHN renal): > 100 µM | TGI (KM12 colon): 37 µM | TGI (NCI-H23 lung): 47.8 µM | TGI (CCRF-CEM leukemia): > 100 µM | TGI (NCI-H460 lung): 36.8 µM | TGI (SF-539 CNS): > 100 µM | TGI (SNB-75 CNS): 84.2 µM
